Laboratory results from US20140377219A1, “HIV INHIBITORS” (New york Blood Center, Inc., priority 2011, published 2014).
Read-outs that look alike come from different tables or passages of the source.

What was measured:
HIV-1MN gp120 and sCD4 = target: T1, HIV-1MN gp120 and sCD4 (Human immunodeficiency virus type 1 group M subtype B, UniProt P05877); experiment: biochemical; type: binding; details: read-out: IC50 (μM ± SD), interaction HIV-1MN gp120 and sCD4
T1 construct: recombinant gp120 from HIV-1IIIB and HIV-1MN
Experimental: (§1) The compounds were incubated at graded concentrations with sCD4 (0.25 μg/ml) in the wells of polystyrene plates containing recombinant gp120, which was captured by coating the plates with a sheep anti-gp120 antibody D7324.

HIV-1IIIB gp120 and sCD4 = target: T2, HIV-1IIIB gp120 and sCD4 (Human immunodeficiency virus type 1 group M subtype B, UniProt P03375); experiment: biochemical; type: binding; details: read-out: IC50 (μM ± SD), interaction HIV-1IIIB gp120 and sCD4
T2 construct: recombinant gp120 from HIV-1IIIB and HIV-1MN
Experimental: as §1

gp120 = gp120 (Human immunodeficiency virus type 1 group M subtype B, UniProt P03375); experiment: biochemical; type: binding, HIV-1
CD4 = CD4 (Homo sapiens, UniProt P01730); experiment: Surface plasmon resonance (SPR), ligand CD4; type: binding
PBMC = experiment: Cytotoxicity in PBMC (XTT); type: cell-based; details: for % toxicity at that dose (number in parenthesis), PBMC: at the dose given as CC50 bound; for CC50: PBMC, XTT, seven days, read-out: PBMC CC50
Experimental: (§2) Cytotoxicity of small molecules in MT-2 cells and PBMC was measured by the XTT ((sodium 3′-(1-(phenylamino)-carbonyl)-3,4-tetrazolium-bis(4-methoxy-6-nitro)benzene-sulfonic acid hydrate)) method. Briefly, for MT-2 cells, 100 μl of a small molecule at graded concentrations was added to an equal volume of cells (10^5 cells/ml) in 96-well plates followed by incubation at 37° C. for four days, which ran parallel with the neutralization assay in MT-2 (except medium was added instead of virus). In the case of PBMC, 5×10^5 cells/ml was used and the cytotoxicity was measured after seven days. […] The percentage cytotoxicity and the CC50 values were calculated as described above.

[1] = Cytotoxicity in PBMC (XTT); type: cell-based; details: human; PBMC, XTT, seven days
Experimental: as §2

[2] = tested on: primary HIV-1 isolate 93IN101 (subtype C, R5); experiment: Neutralization assay in PBMC (p24 ELISA); details: read-out: IC50 (μM) ± S.D., inhibitory activity on infection
Experimental: (§3) The inhibitory activity of small molecules on infection by primary HIV-1 isolates was determined. PBMCs were isolated from the blood of healthy donors at the New York Blood Center by standard density-gradient centrifugation using Histopaque-1077 (Sigma-Aldrich). The cells were cultured at 37° C. for 2 h. Non-adherent cells were collected and resuspended at 5×10^6 cells/ml in RPMI-1640 medium containing 10% (v/v) fetal bovine serum, 5 μg/ml of phytohemagglutinin, and 100 U/ml of IL-2 (Sigma-Aldrich), followed by incubation at 37° C. for three days.

[3] = Cytotoxicity in MT-2 cells (XTT); type: cell-based; details: human; MT-2 cells, XTT, four days
Experimental: as §2

HIV-1 RF = experiment: Multi-cycle neutralization assay in MT-2 cells
HIV-1 SF162 = experiment: Neutralization assay in PBMC (p24 ELISA); details: read-out: IC50 (μM) ± S.D., inhibitory activity on infection
Experimental: (§4) PBMCs were isolated from the blood of healthy donors at the New York Blood Center by standard density-gradient centrifugation using Histopaque-1077 (Sigma-Aldrich). The cells were cultured at 37° C. for 2 h. Non-adherent cells were collected and resuspended at 5×10^6 cells/ml in RPMI-1640 medium containing 10% (v/v) fetal bovine serum, 5 μg/ml of phytohemagglutinin, and 100 U/ml of IL-2 (Sigma-Aldrich), followed by incubation at 37° C. for three days.

HIV-1 89.6 = experiment: Neutralization assay in PBMC (p24 ELISA); details: read-out: IC50 (μM) ± S.D., inhibitory activity on infection
Experimental: as §3

[4] = tested on: primary HIV-1 isolate 92US657 (subtype B, R5); experiment: Neutralization assay in PBMC (p24 ELISA); details: read-out: IC50 (μM) ± S.D., inhibitory activity on infection
Experimental: as §4

[5] = tested on: AZT-resistant (AZT-R) HIV-1 strain; experiment: Multi-cycle neutralization assay in MT-2 cells
HIV-1 SF2 = experiment: Multi-cycle neutralization assay in MT-2 cells
[6] = tested on: primary HIV-1 isolate RU570 (clade G, R5); experiment: Neutralization assay in PBMC (p24 ELISA); details: read-out: IC50 (μM) ± S.D., inhibitory activity on infection
Experimental: as §4

[7] = tested on: primary HIV-1 isolate 92UG031 (subtype A, R5); experiment: Neutralization assay in PBMC (p24 ELISA); details: read-out: IC50 (μM) ± S.D., inhibitory activity on infection
Experimental: as §3

[8] = tested on: primary HIV-1 isolate 93BR029 (clade F, R5); experiment: Neutralization assay in PBMC (p24 ELISA); details: read-out: IC50 (μM) ± S.D., inhibitory activity on infection
Experimental: as §4

[9] = tested on: primary HIV-1 isolate BCF02 (Group 0, R5); experiment: Neutralization assay in PBMC (p24 ELISA); details: read-out: IC50 (μM) ± S.D., inhibitory activity on infection
Experimental: as §3

[10] = tested on: primary HIV-1 isolate 93TH060 (subtype E, R5); experiment: Neutralization assay in PBMC (p24 ELISA); details: read-out: IC50 (μM) ± S.D., inhibitory activity on infection
Experimental: as §3

HIV-1 MN = experiment: Multi-cycle neutralization assay in MT-2 cells
Experimental: In brief, 1×10^4 MT-2 cells were infected with HIV-1 at 100 TCID50 (50% tissue culture infective dose) (0.01MOI) in 200 μl medium in the presence or absence of small molecules at graded concentrations and incubated overnight. The culture supernatants were then removed and replaced with fresh media. On the fourth day post-infection, 100 μl of culture supernatants were collected from each well, mixed with equal volume of 5% Triton X-100 and tested for p24 antigen by sandwich-ELISA. The percent inhibition of p24 production and IC50 values were calculated by the GraphPad Prism software (GraphPad Software Inc.).

[11] = tested on: HIV-1 RF/L-323-12-3 (protease resistant isolate); experiment: Multi-cycle neutralization assay in MT-2 cells
[12] = tested on: laboratory-adapted HIV-1 IIIB strain; experiment: microbe, parasite or virus in culture; details: Human immunodeficiency virus 1, IIIB, MT2, read-out: IC50 (μM) ± S.D., inhibitory activity on infection
HIV-1 BaL = experiment: Neutralization assay in PBMC (p24 ELISA)
Experimental: as §4

MT-2 cells = experiment: Cytotoxicity in MT-2 cells (XTT); type: cell-based; details: for CC50: MT-2 cells, XTT, four days, read-out: MT-2 Cells CC50
Experimental: as §2

[13] = tested on: laboratory-adapted HIV-1 IIIB strain
[14] = tested on: pNL4-3 gp41 (36G) V38E, N42S (fusion resistant isolate); type: cell-based, HIV-1; details: subtype B, MT-2, X4, fusion resistant isolate, read-out: IC50 (μM) ± S.D., inhibitory activity on infection
TZM-bl cells = experiment: Cytotoxicity in TZM-bl cells (XTT); type: cell-based
Experimental: The cytotoxicity of small molecules in TZM-bl cells was measured by a colorimetric method using XTT (sodium 3′-(1-(phenylamino)-carbonyl)-3,4-tetrazolium-bis(4-methoxy-6-nitro)benzenesulfonic acid hydrate), a light yellowish tetrazolium dye. Briefly, 100 μl of a compound at graded concentrations was added to equal volume of cells (10^5/ml) in wells of 96-well plates followed by incubation at 37° C. for 3 days and addition of XTT (PolySciences, Inc., Warrington, Pa.).

[15] = tested on: CD4-dependent virus (ADA); type: cell-based; details: ADA in Cf2Th-CD4+-CCR5+ target cells, FIG. 5; read-out: IC50, inhibition of the CD4-dependent virus
[16] = captured ELISA, sCD4 0.25 μg/ml
[17] = Human immunodeficiency virus 1, PBMC
[18] = Human immunodeficiency virus 1, MT2, read-out: IC50 (μM) ± S.D., inhibitory activity on infection
[19] = at the dose given as CC50 bound

CN1C(=O)[C@@H](c2cc(Cl)c(O)c(Cl)c2)NC(=O)[C@@H]2NC(=O)[C@@H](c3cc(Cl)c(O)c(Cl)c3)NC(=O)[C@H](NC(=O)C(=O)c3cc(Cl)c(O)c(Cl)c3)Cc3c[nH]c4c(cccc34)-c3cc2cc(c3O)Oc2ccc(cc2)C[C@H]1C(=O)N[C@@H](C(=O)O)c1ccc(O)cc1 [Chloropeptin]
IC50 (HIV-1MN gp120 and sCD4; [16]): 0.31 ± 0.2 µM
IC50 (HIV-1IIIB gp120 and sCD4; [16]): 0.31 µM
Kd (gp120; SPR, ligand gp120): 2.5 µM
Rmax (RU) (gp120; SPR, ligand gp120): 1160 RU
koff (gp120; SPR, ligand gp120): 0.011 s⁻¹
Kd (CD4): 5.4 µM
Rmax (RU) (CD4; SPR, ligand CD4): 76.8 RU
koff (CD4; read-out: Koff (s − 1)): 0.018 s⁻¹

Cc1nc(C(NC(=O)C(=O)Nc2ccc(Cl)c(F)c2)C2CCCCN2)sc1CO (stereo not shown) [Compound 27, N^1-(4-chloro-3-fluorophenyl)-N^2-((5-(hydroxymethyl)-4-methylthiazol-2-yl)(piperidin-2-yl)methyl)oxalamide.2HCl]
% toxicity at that dose (number in parenthesis), PBMC (PBMC): (40%)
CC50 at 7 days [1]: > 104 µM
IC50 [2, 17]: ~84 µM
CC50 at 4 days [3]: ~83 µM
IC50 (HIV-1 RF; [18]): 13.8 ± 2.3 µM
IC50 (HIV-1 SF162; [17]): 16.3 ± 1.7 µM
IC50 (HIV-1 89.6; [17]): 3.2 ± 0.7 µM
IC50 [4, 17]: 12.5 ± 2.4 µM
IC50 [5, 18]: 6.5 ± 0.9 µM
IC50 (HIV-1 SF2; [18]): 35.7 ± 2.6 µM
IC50 [6, 17]: 15.3 ± 1.7 µM
IC50 [7, 17]: 10.7 ± 0.3 µM
IC50 [8, 17]: 9.9 ± 0.8 µM
IC50 [9, 17]: ~84 µM
IC50 [10, 17]: 11 ± 0.5 µM
IC50 (HIV-1 MN; [18]): 18.5 ± 1.8 µM
IC50 [11, 18]: 6.2 ± 0.9 µM
IC50 [12]: 4.1 ± 0.7 µM
IC50 (HIV-1 BaL; Human immunodeficiency virus 1, BAL, read-out: IC50 (μM) ± S.D., inhibitory activity on infection): 43.8 ± 5 µM

Cc1ccc(NC(=O)C(=O)NC(c2nc(C)c(CCO)s2)C2CCCCN2)cc1F.Cl (stereo not shown) [Compound 38, N^1-(3-fluoro-4-methylphenyl)-N^2-((5-(2-hydroxyethyl)-4-methylthiazol-2-yl)(piperidin-2-yl)methyl)oxalamide.HCl]
CC50 (PBMC): > 64 µM
% toxicity at that dose (number in parenthesis), PBMC (PBMC): 0%
IC50 ([2]; 93IN101, subtype C, PBMC, R5, primary isolate): > 87 µM
CC50 (MT-2 cells; listed as NBD-110017): > 87 µM
CC50 (MT-2 cells): ~85 µM
% toxicity at that dose (number in parenthesis), MT-2 cells (MT-2 cells; [19]): 30%
IC50 ([13]; read-out: IC50 (μM) ± S.D., inhibitory activity on infection, IIIB, subtype B, MT-2, X4, laboratory strain): 5.3 ± 1.7 µM
IC50 ([13]; read-out: MT-2 Cells IC50 (μM ± SD), multi-cycle assay, MT-2 cells, HIV-1 IIIB): 3.7 ± 0.7 µM
IC50 [14]: 8.4 ± 0.4 µM
IC50 (HIV-1 RF; read-out: IC50 (μM) ± S.D., inhibitory activity on infection, RF, subtype B, MT-2, R5X4, laboratory strain): 12.4 ± 1.4 µM
IC50 (HIV-1 SF162; SF162, subtype B, PBMC, R5, laboratory strain): 16.5 ± 4 µM
IC50 (HIV-1 89.6; 89.6, subtype B, PBMC, R5X4, laboratory strain): 14.7 ± 1.1 µM
IC50 ([4]; 92US657, subtype B, PBMC, R5, primary isolate): 6.8 ± 0.7 µM
IC50 ([5]; read-out: IC50 (μM) ± S.D., inhibitory activity on infection, AZT-R, subtype B, MT-2, X4, RT-resistant isolate): 14.5 ± 1.5 µM
IC50 (HIV-1 SF2; read-out: IC50 (μM) ± S.D., inhibitory activity on infection, SF2, subtype B, MT-2, R5X4, laboratory strain): 27.6 ± 1.7 µM
IC50 ([6]; RU570, subtype G, PBMC, R5, primary isolate): 15.8 ± 0.9 µM
IC50 ([7]; 92UG031, subtype A, PBMC, R5, primary isolate): 10.1 ± 1.8 µM
IC50 ([8]; 93BR029, subtype F, PBMC, R5, primary isolate): 8.6 ± 0.4 µM
IC50 ([9]; BCF02, Group 0, PBMC, R5, primary isolate): ~87 µM
CC50 (TZM-bl cells; TZM-bl cells, XTT, 3 days, read-out: TZM-bl cells CC50 (μM ± SD)): > 85 µM
% toxicity at that dose (number in parenthesis), TZM-bl cells (TZM-bl cells; [19]): 40%
IC50 ([10]; 93TH060, subtype E, PBMC, R5, primary isolate): 14.7 ± 0.7 µM
IC50 (HIV-1 MN; read-out: IC50 (μM) ± S.D., inhibitory activity on infection, MN, subtype B, MT-2, X4, laboratory strain): 14.9 ± 2.6 µM
IC50 ([11]; read-out: IC50 (μM) ± S.D., inhibitory activity on infection, HIV-1 RF/L-323-12-3, subtype B, MT-2, X4, protease resistant isolate): 10.2 ± 0.4 µM
IC50 (HIV-1 BaL; read-out: IC50 (μM) ± S.D., inhibitory activity on infection, BaL, subtype B, R5, laboratory strain): 30.3 ± 1.4 µM

CC1(C)CC(NC(=O)C(=O)Nc2ccc(Br)cc2)CC(C)(C)N1 [NBD-557]
CC50 (PBMC): 603 µM
CC50 (MT-2 cells): 223 µM
IC50 (HIV-1MN gp120 and sCD4): 4.21 ± 1.1 µM
IC50 (HIV-1IIIB gp120 and sCD4): 3.08 ± 0.6 µM
Kd (gp120): 42 µM
Koff (s − 1) (gp120): 4.7 × 10−2 s − 1
Rmax (RU) (gp120): 1.48 RU
IC50 [15]: 13.4 µM
binding to CD4 (CD4; SPR): not to CD4
